# ChEMBL document CHEMBL5506000, “Design, synthesis and antibacterial evaluation of low toxicity amphiphilic-cephalosporin derivatives” (Eur J Med Chem, 2024)
# Active and inactive are the calls of the source. No cut-off for these calls is given here.
# What was measured:
# Staphylococcus aureus [1] = assay: Antibacterial activity against methicillin resistant Staphylococcus aureus; assay type: functional
# Staphylococcus aureus [2] = assay: Drug resistance, ratio of MIC for Staphylococcus aureus measured after 7 days to MIC for Staphylococcus aureus; assay type: functional
# Staphylococcus aureus [3] = assay: Resistance development in 20 day passaged Staphylococcus aureus assessed as cefotaxime antibacterial activity; assay type: functional, organism-based
# Staphylococcus aureus [4] = assay: Antibacterial activity against Staphylococcus aureus measured after 20 days; assay type: functional; conditions: 480 h, time 20 day
# Staphylococcus aureus [5] = assay: Resistance development in 20 day passaged Staphylococcus aureus assessed as ciprofloxacin antibacterial activity; assay type: functional, organism-based
# Staphylococcus aureus [6] = assay: Drug resistance, ratio of MIC for Staphylococcus aureus measured after 20 days to MIC for Staphylococcus aureus; assay type: functional
# Staphylococcus aureus [7] = assay: Resistance development in 20 day passaged Staphylococcus aureus assessed as ampicillin antibacterial activity; assay type: functional, organism-based
# Staphylococcus aureus [8] = assay: Resistance development in 20 day passaged Staphylococcus aureus assessed as beta-lactam antibacterial activity; assay type: functional, organism-based
# Staphylococcus aureus [9] = assay: Resistance development in 20 day passaged Staphylococcus aureus assessed as levofloxacin antibacterial activity; assay type: functional, organism-based
# Staphylococcus aureus [10] = assay: Post-antibiotic effect against Staphylococcus aureus at 4 times of MIC incubated for 1 hrs; assay type: functional
# Staphylococcus aureus [11] = assay: Antibacterial activity against methicillin resistant Staphylococcus aureus clinical isolates assessed as 50% inhibition of bacterial growth; assay type: functional
# Staphylococcus aureus [12] = assay: Antibacterial activity against methicillin resistant Staphylococcus aureus clinical isolates; assay type: functional
# Staphylococcus aureus [13] = assay: Drug resistance, ratio of MIC for Staphylococcus aureus measured after 10 days to MIC for Staphylococcus aureus; assay type: functional
# [14] = Cytotoxicity against HUVEC assessed as reduction in cell viability by CCK-8 assay; assay type: toxicity, cell-based; conditions: human, HUVEC cells
# Staphylococcus aureus [15] = assay: Antibacterial activity against Staphylococcus aureus ATCC 29213 by CLSI protocol based assay; assay type: functional
# Cell membrane [16] = assay: Induction of inner membrane permeabilization in Staphylococcus aureus assessed as increase in fluorescence intensity at 16 microg/ml by PI staining based analysis; assay type: cell membranes; conditions: dose 16.0 µg/ml
# Staphylococcus aureus [17] = assay: Antibacterial activity against Staphylococcus aureus assessed as reduction in metabolic activity at sub-MIC; assay type: functional, organism-based
# Escherichia coli [18] = assay: Antibacterial activity against Escherichia coli ATCC 25922 by CLSI protocol based assay; assay type: functional
# Staphylococcus aureus [19] = assay: Antibacterial activity against Staphylococcus aureus measured after 3 to 6 hrs in presence of 50% plasma; assay type: functional, organism-based; conditions: time 3-6 hrs
# Staphylococcus aureus [20] = assay: Antibacterial activity against early exponential growth phase Staphylococcus aureus assessed as reduction in bacterial colony at 8 times of MIC measured at 8 to 24 hrs by time-kill kinetics assay; assay type: functional, organism-based; conditions: time 8-24 hrs
# Escherichia coli [21] = assay: Induction of morphological changes in Escherichia coli assessed as cell elongation at 8 times of MIC incubated for 6 hrs by scanning electron microscopic analysis; assay type: functional, organism-based
# [22] = Cytotoxicity against rat HBZY-1 cells assessed as reduction in cell viability by CCK-8 assay; assay type: toxicity, cell-based
# [23] = Hemolytic activity in sheep RBC; assay type: toxicity, cell-based, Ovis aries, Erythrocyte; conditions: sheep red blood cells (erythrocytes)
# [24] = system: Stenotrophomonas maltophilia; assay: Antibacterial activity against Stenotrophomonas maltophilia ATCC 17808 by CLSI protocol based assay; assay type: functional
# Cell membrane [25] = assay: Induction of cell membrane depolarization in Staphylococcus aureus assessed as increase in fluorescence intensity at 16 microg/ml by DiSC3(5) dye based assay; assay type: cell membranes; conditions: dose 16.0 µg/ml
# Staphylococcus aureus [26] = assay: Post-antibiotic effect against Staphylococcus aureus at 1 times of MIC incubated for 1 hrs; assay type: functional
# Staphylococcus aureus [27] = assay: Antibacterial activity against Staphylococcus aureus assessed as inhibition of metabolic activity at MIC; assay type: functional
# Enterococcus faecalis = assay: Antibacterial activity against Enterococcus faecalis ATCC 29212 by CLSI protocol based assay; assay type: functional
# Staphylococcus aureus [28] = assay: Antibacterial activity against Staphylococcus aureus in presence of 50% serum; assay type: functional
# Staphylococcus aureus [29] = assay: Antibacterial activity against Staphylococcus aureus in presence of 50% plasma; assay type: functional
# [30] = Hemolytic activity in sheep RBC assessed as hemolysis rate at 1280 microg/ml relative to control; assay type: toxicity, cell-based, Ovis aries, Erythrocyte; conditions: sheep red blood cells (erythrocytes), dose 1280 µg/ml, read-out: Activity
# Cell membrane [31] = assay: Induction of cell membrane damage in Staphylococcus aureus assessed as protein leakage at 8 to 32 microg/ml; assay type: cell membranes; conditions: dose 8-32 µg/ml
# Staphylococcus aureus [32] = assay: Drug resistance, ratio of MIC for Staphylococcus aureus measured within 20 days to MIC for Staphylococcus aureus; assay type: functional
# [33] = Cytotoxicity against HUVEC assessed as viable cells at 128 microg/ml incubated for 48 hrs by CCK-8 assay relative to control; assay type: toxicity, cell-based; conditions: human, at 128 µg/mL, read-out: Activity
# Cell membrane [34] = assay: Induction of cell membrane damage in Staphylococcus aureus assessed as nucleic acid leakage at 8 to 32 microg/ml by absorbance based analysis; assay type: cell membranes; conditions: dose 8-32 µg/ml
# [35] = Cytotoxicity against rat HBZY-1 cells assessed as viable cells at 128 microg/ml incubated for 48 hrs by CCK-8 assay relative to control; assay type: toxicity, cell-based; conditions: at 128 µg/mL, read-out: Activity
Compound,Activity (Staphylococcus aureus [3]),Activity (Staphylococcus aureus [5]),Ratio (Staphylococcus aureus [6]),Activity (Staphylococcus aureus [7]),Activity (Staphylococcus aureus [8]),Activity (Staphylococcus aureus [9]),PAE (Staphylococcus aureus [10]),MIC50 (Staphylococcus aureus [11]),MIC (Staphylococcus aureus [12]),CC50 [14],MIC (Staphylococcus aureus [15]),Activity (Cell membrane [16]),Activity (Staphylococcus aureus [17]),MIC (Escherichia coli [18]),Activity (Staphylococcus aureus [19]),Activity (Escherichia coli [21]),CC50 [22],HC50 [23],MIC [24],Activity (Cell membrane [25]),also measured
CCCCCCN(Cc1ccc(-c2ccc(CN(CCCCCC)C(=O)[C@@H](N)CCCCN)cc2)cc1)C(=O)[C@@H](N)CCCCN.O=C(O)C(F)(F)F.O=C(O)C(F)(F)F.O=C(O)C(F)(F)F.O=C(O)C(F)(F)F,,,,,,,,,,,,,,,,,,,,,MIC (Staphylococcus aureus [1]): 3.1 µg/mL
CCn1cc(C(=O)O)c(=O)c2cc(F)c(N3CCNCC3)cc21 [NORFLOXACIN],inactive,inactive,64,inactive,inactive,inactive,,,,,,,,,,,,,,,Ratio (Staphylococcus aureus [2]): 16; MIC (Staphylococcus aureus [4]): 64 µg/mL
CO/N=C(\C(=O)N[C@@H]1C(=O)N2C(C(=O)[O-])=C(C[n+]3ccccc3)CS[C@H]12)c1csc(N)n1.O=C(O)C(F)(F)F,inactive,inactive,32,inactive,inactive,inactive,2.1 h,2 µg/mL,2 µg/mL,> 128 µg/mL,1 µg/mL,inactive,Active,0.063 µg/mL,Active,Active,> 128 µg/mL,> 1280 µg/mL,0.063 µg/mL,inactive,Ratio (Staphylococcus aureus [13]): 8; Activity (Staphylococcus aureus [20]): Active; PAE (Staphylococcus aureus [26]): 1.48 h; inhibition (INH) (Staphylococcus aureus [27]): ~100%; MIC (Enterococcus faecalis): 4 µg/mL
CCCCCCCCNC(=O)c1ccc[n+](CC2=C(C(=O)[O-])N3C(=O)[C@@H](NC(=O)/C(=N\OC)c4csc(N)n4)[C@H]3SC2)c1.O=C(O)C(F)(F)F,Active,Active,,Active,Active,Active,2.08 h,2 µg/mL,2 µg/mL,> 128 µg/mL,0.5 µg/mL,inactive,Active,8 µg/mL,Active,Active,> 128 µg/mL,> 1280 µg/mL,8 µg/mL,inactive,"MIC (Staphylococcus aureus [28]): 0.5 µg/mL; MIC (Staphylococcus aureus [29]): 1 µg/mL; hemolysis at 1280 microg/ml [30]: 2.85%; Activity (Cell membrane [31]): inactive; Ratio (Staphylococcus aureus [32]): <4; viability at 48 h, 128 microg/ml [33]: 100%; PAE (Staphylococcus aureus [26]): 1.58 h; Activity (Cell membrane [34]): inactive; inhibition (INH) (Staphylococcus aureus [27]): ~100%; viability at 48 h, 128 microg/ml [35]: 92.6%; MIC (Enterococcus faecalis): 4 µg/mL"
